Source: US6096930A, “Herbicidal cyclohexane-1,3-dione derivatives and their preparation process” (Korea Research Institute of Chemical Technology, priority 1994, dated 2000)
Like-named read-outs stand apart in the source and are kept apart here.

Tests used:
Test in all cases: Herbicidal activity for paddy test
Type in all cases: in vivo
SCPJU = conditions: for pest or weed control at 2 g/ha: 0.002 kg/ha; for pest or weed control at 8 g/ha: 0.008 kg/ha; for pest or weed control at 31 g/ha: 0.031 kg/ha; for pest or weed control at 125 g/ha: 0.125 kg/ha; for pest or weed control at 500 g/ha: 0.500 kg/ha
Method in brief: (§1)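 Pots of 115 cm^2 surface area are filled with sterilized sandy loam soil. Seeds of each paddy species are planted in furrows. Control is then rated by eye on a 0–100 % scale, where 100 means complete kill.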

MOOVA = conditions: for pest or weed control at 2 g/ha: 0.002 kg/ha; for pest or weed control at 8 g/ha: 0.008 kg/ha; for pest or weed control at 31 g/ha: 0.031 kg/ha; for pest or weed control at 125 g/ha: 0.125 kg/ha; for pest or weed control at 500 g/ha: 0.500 kg/ha
Method in brief: as §1

ECHOR = conditions: for pest or weed control at 2 g/ha: 0.002 kg/ha; for pest or weed control at 8 g/ha: 0.008 kg/ha; for pest or weed control at 31 g/ha: 0.031 kg/ha; for pest or weed control at 125 g/ha: 0.125 kg/ha; for pest or weed control at 500 g/ha: 0.500 kg/ha
Method in brief: as §1

SAGPY = conditions: for pest or weed control at 2 g/ha: 0.002 kg/ha; for pest or weed control at 8 g/ha: 0.008 kg/ha; for pest or weed control at 31 g/ha: 0.031 kg/ha; for pest or weed control at 125 g/ha: 0.125 kg/ha; for pest or weed control at 500 g/ha: 0.500 kg/ha
Method in brief: as §1

ORYSA = conditions: for plant injury at 2 g/ha: 0.002 kg/ha; for plant injury at 8 g/ha: 0.008 kg/ha; for plant injury at 31 g/ha: 0.031 kg/ha; for plant injury at 125 g/ha: 0.125 kg/ha; for plant injury at 500 g/ha: 0.500 kg/ha
Method in brief: as §1

[1] = 3 Leaf, read-out: Herbicidal activity, ORYSA (3 Leaf)
[2] = seed, read-out: Herbicidal activity, ORYSA (seed)

Structure (SMILES)	pest or weed control at 2 g/ha (SCPJU) [%]	pest or weed control at 8 g/ha (SCPJU) [%]	pest or weed control at 31 g/ha (SCPJU) [%]	pest or weed control at 125 g/ha (SCPJU) [%]	pest or weed control at 500 g/ha (SCPJU) [%]	pest or weed control at 2 g/ha (MOOVA) [%]	pest or weed control at 8 g/ha (MOOVA) [%]	pest or weed control at 31 g/ha (MOOVA) [%]	pest or weed control at 125 g/ha (MOOVA) [%]	pest or weed control at 500 g/ha (MOOVA) [%]	pest or weed control at 2 g/ha (ECHOR) [%]	pest or weed control at 8 g/ha (ECHOR) [%]	pest or weed control at 31 g/ha (ECHOR) [%]	pest or weed control at 125 g/ha (ECHOR) [%]	pest or weed control at 500 g/ha (ECHOR) [%]	pest or weed control at 2 g/ha (SAGPY) [%]	pest or weed control at 8 g/ha (SAGPY) [%]	pest or weed control at 31 g/ha (SAGPY) [%]	pest or weed control at 125 g/ha (SAGPY) [%]	pest or weed control at 500 g/ha (SAGPY) [%]	also measured
CCON=C(CC)C1=C(O)CC(c2c(C)c(C)c3c(c2Cl)CC(C)(C)C3)CC1=O (stereo not drawn) [Compound 39]	0	0	0	0	0	0	0	0	0	0	0	80	100	100	100	0	0	0	0	0	plant injury at 2 g/ha (ORYSA; [1]): 0%; plant injury at 8 g/ha (ORYSA; [1]): 0%; plant injury at 31 g/ha (ORYSA; [1]): 0%; plant injury at 125 g/ha (ORYSA; [1]): 0%; plant injury at 500 g/ha (ORYSA; [1]): 80%; plant injury at 2 g/ha (ORYSA; [2]): 0%; plant injury at 8 g/ha (ORYSA; [2]): 0%; plant injury at 31 g/ha (ORYSA; [2]): 100%; plant injury at 125 g/ha (ORYSA; [2]): 100%; plant injury at 500 g/ha (ORYSA; [2]): 100%
C=CCON=C(CC)C1=C(O)CC(c2c(C)c(C)c3c(c2Cl)CC(C)(C)C3)CC1=O (stereo not drawn) [Compound 40]	0	0	0	0	0	0	0	0	0	0	0	0	0	100	100	0	0	0	0	0	plant injury at 2 g/ha (ORYSA; [1]): 0%; plant injury at 8 g/ha (ORYSA; [1]): 0%; plant injury at 31 g/ha (ORYSA; [1]): 0%; plant injury at 125 g/ha (ORYSA; [1]): 0%; plant injury at 500 g/ha (ORYSA; [1]): 0%; plant injury at 2 g/ha (ORYSA; [2]): 0%; plant injury at 8 g/ha (ORYSA; [2]): 0%; plant injury at 31 g/ha (ORYSA; [2]): 0%; plant injury at 125 g/ha (ORYSA; [2]): 0%; plant injury at 500 g/ha (ORYSA; [2]): 100%
CCCC(=NOC)C1=C(O)CC(c2c(C)c(C)c3c(c2Cl)CC(C)(C)C3)CC1=O (stereo not drawn) [Compound 42]	0	0	0	0	0	0	0	0	0	0	0	0	80	100	100	0	0	0	0	0	plant injury at 2 g/ha (ORYSA; [1]): 0%; plant injury at 8 g/ha (ORYSA; [1]): 0%; plant injury at 31 g/ha (ORYSA; [1]): 0%; plant injury at 125 g/ha (ORYSA; [1]): 0%; plant injury at 500 g/ha (ORYSA; [1]): 0%; plant injury at 2 g/ha (ORYSA; [2]): 0%; plant injury at 8 g/ha (ORYSA; [2]): 0%; plant injury at 31 g/ha (ORYSA; [2]): 20%; plant injury at 125 g/ha (ORYSA; [2]): 100%; plant injury at 500 g/ha (ORYSA; [2]): 100%
